≈ marks a conversion by molar mass, not a printed value.
Experiments:
Colony LP5 = test: Antibiotic susceptibility test; assay type: cell-based, Lactiplantibacillus Plantarum; details: for MIC: Lactiplantibacillus plantarum, LP5, 24 h, read-out: Minimum inhibitory concentration of the antibiotic to LP5, 96-well, 37 C 24 h, OD600
Source text: (§1) To test bacterial susceptibility to antibiotics, such as Aminoglycosides antibiotics, Sulfonamide antibiotics, Quinolone antibiotics, Ampicillin, Cefotaxime, Chloramphenicol, Erythromycin, Rifampicin and Tetracycline, the experimental protocol were as follow. Further, the Quinolone antibiotics comprise Ciprofloxacin, the Aminoglycosides antibiotics comprise Kanamycin and […], and the Sulfonamide antibiotics comprise Sulfamethoxazole. […] The initial absorbance at 600 nm (OD600) of each well was recorded. Then, the 96-well plates were placed at 37° C. and cultured for 24 hours. Next, the OD600 of each well was measured again to determine minimum inhibitory concentration.

Colony PTA22 = test: Antibiotic susceptibility test; assay type: cell-based, Lactiplantibacillus Plantarum; details: for MIC: Lactiplantibacillus plantarum, PTA22, 24 h, read-out: Minimum inhibitory concentration of the antibiotic to PTA22, 96-well, 37 C 24 h, OD600
Source text: as §1

Colony LP19 = test: Antibiotic susceptibility test; assay type: cell-based, Lactiplantibacillus Plantarum; details: for MIC: Lactiplantibacillus plantarum, LP19, 24 h, read-out: Minimum inhibitory concentration of the antibiotic to LP19, 96-well, 37 C 24 h, OD600
Source text: as §1

Colony LP2 = test: Antibiotic susceptibility test; assay type: cell-based, Lactiplantibacillus Plantarum; details: 96-well, 37 C 24 h, OD600; for MIC: Lactiplantibacillus plantarum, LP2, 24 h, read-out: Minimum inhibitory concentration of the antibiotic to LP2
Source text: as §1

Colony LP1 = test: Antibiotic susceptibility test; assay type: cell-based, Lactiplantibacillus Plantarum; details: for MIC: Lactiplantibacillus plantarum, LP1, 24 h, read-out: Minimum inhibitory concentration of the antibiotic to LP1, 96-well, 37 C 24 h, OD600
Source text: as §1

Shigella sonnei [1] = test: Agar diffusion method-2 (cell-free solution); assay type: cell-based; details: colonies as cell-free solution in holes of TSA; ddH2O control 8
Method: (§2) Firstly, the CFSs (containing metabolites) were prepared. Besides, when probiotics break down fiber and convert the fiber into metabolites, the metabolites are postbiotics.
(§3) Next, the pathogenic bacteria described above were also cultured with 37° C. until the concentration thereof reached 1×10^8 CFU/mL, respectively. 100 μL bacterial solutions of the pathogenic bacteria described above were evenly plated on Tryptone Soy Agar (TSA) and stay for 10 minutes. Then, tips were used to form several holes in the TSA. Subsequently, 100 μL bacterial solutions of the colonies described above were added into the holes and then cultured at 37° C. for 12 hours.
(§4) This experiment is designed that the CFSs in the holes prevent the pathogenic bacteria on the plates from growing. Therefore, the larger zone indicates the better antibacterial effect.

Staphylococcus aureus [2] = test: Agar diffusion method-2 (cell-free solution); assay type: cell-based; details: colonies as cell-free solution in holes of TSA; ddH2O control 8
Method: as §2, §3, §4

Escherichia coli (ETEC) [3] = test: Agar diffusion method-2 (cell-free solution); assay type: cell-based; details: colonies as cell-free solution in holes of TSA; ddH2O control 8
Method: as §2, §3, §4

Salmonella enterica [4] = test: Agar diffusion method-2 (cell-free solution); assay type: cell-based; details: colonies as cell-free solution in holes of TSA; ddH2O control 8
Method: as §2, §3, §4

Bacillus cereus [5] = test: Agar diffusion method-2 (cell-free solution); assay type: cell-based; details: colonies as cell-free solution in holes of TSA; ddH2O control 8
Method: as §2, §3, §4

Pseudomonas aeruginosa [6] = test: Agar diffusion method-2 (cell-free solution); assay type: cell-based; details: colonies as cell-free solution in holes of TSA; ddH2O control 8
Method: as §2, §3, §4

Klebsiella pneumoniae [7] = test: Agar diffusion method-2 (cell-free solution); assay type: cell-based; details: colonies as cell-free solution in holes of TSA; ddH2O control 8
Method: as §2, §3, §4

Streptococcus pneumoniae [8] = test: Agar diffusion method-2 (cell-free solution); assay type: cell-based; details: colonies as cell-free solution in holes of TSA; ddH2O control 8
Method: as §2, §3, §4

Shigella sonnei [9] = test: Minimum inhibitory concentration and minimum bacterial concentration; assay type: cell-based; details: antibiotics; for MIC: 37 C 24 h, OD600; for MBC: plated on nutrient agar 48-72 h
Method: (§5) Minimum inhibitory concentration (MIC) refers to the minimum concentration at which the development of bacteria can be blocked and antibacterial resistance can be observed after cultured. The lower MIC means the better effect on bacteria.
(§6) The supernatants of the cultured colonies described above were collected, as cell-free solutions (CFSs), by centrifuge at 5000 rpm after cultured the colonies in a nutrient broth and shaking at 37° C. for 48 hours.
(§7) Next, 100 μL each of the CFSs and 100 μL bacterial solutions of the pathogenic bacteria were respectively added to each well of a 96-well plate. Thus, the total volume in each well was 200 μL. The tested pathogenic bacteria included Salmonella enterica, Shigella sonnei, Klebsiella pneumoniae, Streptococcus pneumoniae, Bacillus cereus, Staphylococcus aureus, Pseudomonas aeruginosa, and Escherichia coli.
(§8) As well, 100 μL each of the nutrient broth containing Ampicillin or Kanamycin and 100 μL bacterial solutions of the pathogenic bacteria were respectively added to each well of a 96-well plate. Thus, the total volume in each well was 200 μL.
(§9) Then, initial values of OD600 in each well were recorded. Subsequently, the 96-well plates were cultured at 37° C. for 24 hours, and the OD600 values thereof were re-recorded for determining the MICs of each colony described above.
(§10) Finally, 100 μL CFSs of the next three concentrations […] MIC were taken to be plated on nutrient agar and then cultured at 37° C. for 48-72 hours. The concentrations of the CFSs that no colonies grown on nutrient agar were determined to be the minimum bacterial concentration (MBCs).

Staphylococcus aureus [10] = test: as above; assay type: cell-based; details: antibiotics; for MIC: 37 C 24 h, OD600; for MBC: plated on nutrient agar 48-72 h
Method: as §5, §6, §7, §8, §9, §10

Escherichia coli (ETEC) [11] = test: as above; assay type: cell-based; details: antibiotics
Method: as §5, §6, §7, §8, §9, §10

Bacillus cereus [12] = test: as above; assay type: cell-based; details: antibiotics
Method: as §5, §6, §7, §8, §9, §10

Pseudomonas aeruginosa [13] = test: as above; assay type: cell-based; details: antibiotics
Method: as §5, §6, §7, §8, §9, §10

Klebsiella pneumoniae [14] = test: as above; assay type: cell-based; details: antibiotics
Method: as §5, §6, §7, §8, §9, §10

Streptococcus pneumoniae [15] = test: as above; assay type: cell-based; details: antibiotics
Method: as §5, §6, §7, §8, §9, §10

Salmonella enterica [16] = test: as above; assay type: cell-based
Method: Finally, 100 μL CFSs of the next three concentrations below MIC were taken to be plated on nutrient agar and then cultured at 37° C. for 48-72 hours. The concentrations of the CFSs that no colonies grown on nutrient agar were determined to be the minimum bacterial concentration (MBCs).

species L. plantarum = details: EFSA (2005); cited from earlier work
L. plantarum 299v = details: from Klarin et al., 2019; cited from earlier work
L. pl 24-2L = details: from Georgieva et al., 2015; cited from earlier work
L. plantarum 299 = details: from Klarin et al., 2019; cited from earlier work
L. pl 24-5D = details: from Georgieva et al., 2015; cited from earlier work
[17] = plated on nutrient agar 48-72 h

| SMILES | MIC (Colony LP5) [µg/mL] | MIC (Colony PTA22) [µg/mL] | MIC (Colony LP19) [µg/mL] | MIC (Colony LP2) [µg/mL] | MIC (Colony LP1) [µg/mL] | Inhibitory zone, Shigella Sonnei (Shigella sonnei [1]) [mm] | Inhibitory zone, Escherichia coli (ETEC) (Escherichia coli (ETEC) [3]) [mm] | Inhibitory zone, Salmonella Enterica (Salmonella enterica [4]) [mm] | Inhibitory zone, Bacillus Cereus (Bacillus cereus [5]) [mm] | Inhibitory zone, Pseudomonas Aeruginosa (Pseudomonas aeruginosa [6]) [mm] | Inhibitory zone, Klebsiella Pneumoniae (Klebsiella pneumoniae [7]) [mm] | Inhibitory zone, Streptococcus Pneumoniae (Streptococcus pneumoniae [8]) [mm] | MIC (Shigella sonnei [9]) [µg/mL] | MBC (Shigella sonnei [9]) [µg/mL] | MIC (Staphylococcus aureus [10]) [µg/mL] | MBC (Staphylococcus aureus [10]) [µg/mL] | further results |
| --- | --- | --- | --- | --- | --- | --- | --- | --- | --- | --- | --- | --- | --- | --- | --- | --- | --- |
| NC[C@H]1O[C@H](O[C@H]2[C@H](O)[C@@H](O[C@H]3O[C@H](CO)[C@@H](O)[C@H](N)[C@H]3O)[C@H](N)C[C@@H]2N)[C@H](O)[C@@H](O)[C@@H]1O [Kanamycin] | > 256 | > 256 | > 256 | > 256 | > 256 | 20 | 17 | 16 | 20 | 20 | 20 | 20 | 16 (≈ 33 µM) | 64 (≈ 132 µM) | 4 (≈ 8.26 µM) | 8 (≈ 16.5 µM) | Minimum inhibitory concentration of the antibiotic to LP5 (Colony LP5; 96-well, 37 C 24 h, OD600): >256 µg/mL; Minimum inhibitory concentration of the antibiotic to PTA22 (Colony PTA22; 96-well, 37 C 24 h, OD600): >256 µg/mL; Minimum inhibitory concentration of the antibiotic to LP19 (Colony LP19; 96-well, 37 C 24 h, OD600): >256 µg/mL; Minimum inhibitory concentration of the antibiotic to LP2 (Colony LP2): >256 µg/mL; Minimum inhibitory concentration of the antibiotic to LP1 (Colony LP1; 96-well, 37 C 24 h, OD600): >256 µg/mL; Inhibitory zone, Staphylococcus Aureus (Staphylococcus aureus [2]): 23 mm; MIC (Escherichia coli (ETEC) [11]; 37 C 24 h, OD600): 64 µg/mL (≈ 132 µM); MBC (Escherichia coli (ETEC) [11]; [17]): 128 µg/mL (≈ 264 µM); MIC (Bacillus cereus [12]; 37 C 24 h, OD600): 256 µg/mL (≈ 528 µM); MBC (Bacillus cereus [12]; [17]): > 256 µg/mL; MIC (Pseudomonas aeruginosa [13]; 37 C 24 h, OD600): 8 µg/mL (≈ 16.5 µM); MBC (Pseudomonas aeruginosa [13]; [17]): 16 µg/mL (≈ 33 µM); MIC (Klebsiella pneumoniae [14]; 37 C 24 h, OD600): 32 µg/mL (≈ 66 µM); MBC (Klebsiella pneumoniae [14]; [17]): 64 µg/mL (≈ 132 µM); MIC (Streptococcus pneumoniae [15]; 37 C 24 h, OD600): 8 µg/mL (≈ 16.5 µM); MBC (Streptococcus pneumoniae [15]; [17]): 16 µg/mL (≈ 33 µM); MIC (Salmonella enterica [16]; 24 h, read-out: MIC, Salmonella Enterica): 64 µg/mL (≈ 132 µM); MBC (Salmonella enterica [16]; antibiotics, plated on nutrient agar 48-72 h): 128 µg/mL (≈ 264 µM) |
| CC1(C)S[C@@H]2[C@H](NC(=O)[C@H](N)c3ccccc3)C(=O)N2[C@H]1C(=O)O [Ampicillin] | 0.25 (≈ 0.715 µM) | 0.5 (≈ 1.43 µM) | 0.25 (≈ 0.715 µM) | 0.25 (≈ 0.715 µM) | 0.125 (≈ 0.358 µM) | 12 | 8 | 8 | 8 | 8 | 8 | 8 | 8 (≈ 22.9 µM) | 16 (≈ 45.8 µM) | 0.5 (≈ 1.43 µM) | 1 (≈ 2.86 µM) | EFSA, MIC breakpoints species L. plantarum (species L. plantarum): 4 µg/mL; Minimum inhibitory concentration of the antibiotic to L. plantarum 299v (L. plantarum 299v): 0.094 µg/mL; Minimum inhibitory concentration of the antibiotic to L. pl 24-2L (L. pl 24-2L): 0.38 µg/mL; Minimum inhibitory concentration of the antibiotic to L. plantarum 299 (L. plantarum 299): 0.094 µg/mL; Minimum inhibitory concentration of the antibiotic to L. pl 24-5D (L. pl 24-5D): 1 µg/mL |

Reference: US20240390438A1, “PROBIOTICS SEPARATED FROM RABBIT FECES AND FOOD CONTAINING PROBIOTICS” (AGENT Innovation Co., Ltd., priority 2021, published 2024)
